Test results as given in article PMC4083273 (Bioscience Reports, 2014).

Assays:
CobR (corrin reductase) [1] = target: T1, CobR (corrin reductase) (Brucella melitensis, UniProt Q8YHT7); conditions: reference without excess FAD 70 °C, 50 mM NaPi, 100 mM NaCl pH 6.5, 125°/h, irreversible unfolding
T1 construct: gene BMEI0709

CobR (corrin reductase) [2] = target: T1, CobR (corrin reductase); conditions: crystals grown with 2 mM FAD, pH 4.6; FAD in both active sites; second site (additional folded FAD per subunit)

T1 sequence (Q8YHT7 1-173): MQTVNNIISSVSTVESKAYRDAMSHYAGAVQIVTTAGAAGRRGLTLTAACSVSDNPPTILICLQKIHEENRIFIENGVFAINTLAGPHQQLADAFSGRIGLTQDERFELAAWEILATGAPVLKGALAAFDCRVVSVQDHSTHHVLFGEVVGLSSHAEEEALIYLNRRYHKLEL

SMILES: Cc1cc2nc3c(=O)[nH]c(=O)nc-3n(C[C@H](O)[C@H](O)[C@H](O)COP(=O)(O)OP(=O)(O)OC[C@H]3O[C@@H](n4cnc5c(N)ncnc54)[C@H](O)[C@@H]3O)c2cc1C [FAD]
- apparent Tm with excess FAD (CobR (corrin reductase) [1]): 80 °C
- X-ray crystallography, 2.2 Å (CobR (corrin reductase) [2]): FAD is seen occupying both active sites of the homodimer
